Data from PubChem BioAssay AID1996.
≈ marks a conversion by molar mass, not a printed value.

details: buffer; pH 7.4; 200.0 µM

Structure (SMILES) | solubility kinetic [µg/mL]
O=C(COC(=O)c1ccc2c(c1)OCO2)Nc1ccccc1OC(F)F | 3.7 (≈ 10.1 µM)
CCC(C)n1c(O)c(C=NC(C)c2ccccc2)c(=O)[nH]c1=S (stereo not given) | 4.3 (≈ 13 µM)
O=[N+]([O-])c1ccccc1-c1ccc(C(=S)N2CCCCC2)o1 | 11.8 (≈ 37.3 µM)
CC(C)C(=O)NNC(=O)c1csc(-c2cccs2)n1 | > 44.3
O=C(Nc1ccc(F)cc1)C(Cc1ccccc1)n1cccc1 (stereo not given) | 31.4 (≈ 102 µM)
CCCN(CCC)C(=O)c1cc2c(=O)[nH]c3ccc(C)cc3c2s1 | < 0.4
CN1CCN(C(=O)C2CCC(C)(C(=O)O)C2(C)C)CC1 (stereo not given) | 40.5 (≈ 143 µM)
COc1cc(SC)ccc1C(=O)Nc1ccc2c(c1)CCC2 | 2.2 (≈ 7.02 µM)
Cc1cnc(NC(=O)Nc2ccccc2)c(C)n1 | 32 (≈ 132 µM)
COc1ccc(C2CC(=O)C=C(NCc3ccccc3)C2)cc1 (stereo not given) | 14.2 (≈ 46.2 µM)
O=c1c2oc3nc4c(cc3c2ncn1CCCc1ccccc1)CCCC4 | 1.3 (≈ 3.62 µM)
S=C(NCC(c1ccco1)N1CCCC1)Nc1ccccc1 (stereo not given) | > 47.3
CN(C(=O)c1ccc2c(c1)OCO2)C1CCCCC1 | 38.4 (≈ 147 µM)
O=C1N(CN2CCOCC2)c2ccccc2C12OCC(CCl)O2 (stereo not given) | 49.6 (≈ 146 µM)
N#CC(C#N)=Cc1ccc(N2CCOCC2)cc1 | 4.4 (≈ 18.4 µM)
Cc1ccnc(NC(=O)Cn2c(=O)oc3ccccc32)c1 | 10.9 (≈ 38.5 µM)
Cn1cccc1C(=O)NC1CCCCCC1 | > 33
CCOC(=O)c1ccc(NC(=S)NCc2ccco2)cc1 | > 45.7
O=[N+]([O-])c1cccc(CN2CCC(Cc3ccccc3)CC2)c1 | 17.3 (≈ 55.7 µM)
O=C(NC1CCCCC1)C(=S)N1CCOCC1 | > 38.5

Structure (SMILES) | solubility kinetic [µg/mL]
Cc1ccc2cccc(OC(=O)/C=C\c3ccccc3)c2n1 | 16.8 (≈ 58.1 µM)
Clc1nn2cnnc2c2ccccc12 | > 30.7
CCCC(C)C(=O)Nc1ccc(S(=O)(=O)N2CCCC2)cc1 (stereo not given) | > 48.7
CCOc1ncccc1C(=O)NCC(c1ccco1)N1CCCCC1 (stereo not given) | > 51.5
CCCOC1CCCN(Cc2nc(-c3cnccn3)no2)C1 (stereo not given) | 41.3 (≈ 136 µM)
CC1=C(C)C(OCCBr)N(c2cc(O)c(Cl)cc2F)C1=O (stereo not given) | > 56.8
Cc1ccc(S(=O)(=O)N(C)CC(=O)N2CC(C)OC(C)C2)cc1 (stereo not given) | > 51.1
OCC1(CO)COC(c2ccccc2)=N1 | > 31.1
CCCS(=O)(=O)N1CCCC(C(=O)c2cccc(Cl)c2)C1 (stereo not given) | 44.7 (≈ 136 µM)
CCCC(=O)NC(=S)Nc1ccc(CN2CCOCC2)cc1 | > 48.2
Cc1ccc2nc(C)c3c(c2c1)SCC3 | 11.3 (≈ 52.5 µM)
CCCN(CCC)S(=O)(=O)c1cc2c3c(c1)CCN3C(=O)CC2 | > 50.5
Cc1nccn1-c1c([N+](=O)[O-])c(=O)n(C)c2ccccc12 | > 42.6
COc1ccc(N2CCN(S(=O)(=O)c3cnc[nH]3)CC2)cc1 | 3 (≈ 9.31 µM)
CC(C)Nc1nc(SC(C)C(=O)Nc2ccccc2)nc(N(C)C)n1 (stereo not given) | 26.5 (≈ 73.5 µM)
Cc1ccc(CNC(=S)NC2CCCCC2)cc1 | 32.3 (≈ 123 µM)
CCNC(=O)CSc1nc2sccc2c(=O)n1-c1ccccc1 | > 51.8
COc1cccc(-c2cc(C(=O)NCC3CCCO3)on2)c1 (stereo not given) | > 45.3
Cc1cc(OC(C)C(=O)Nc2cccnc2)ccc1Cl (stereo not given) | 35.8 (≈ 123 µM)
CC(=O)N(CCC(c1ccco1)C(C)C)Cc1ccc(Cl)cc1 (stereo not given) | 16.4 (≈ 49.1 µM)

Structure (SMILES) | solubility kinetic [µg/mL]
Cc1ccc(NP(=O)(c2ccccc2)c2nc3ccccc3s2)cc1 (stereo not given) | 2.2 (≈ 6.04 µM)
CCOC(=O)C1=C(C)NC(C)=C(C(=O)OCC)C1C(=O)OCC(=O)NCc1ccccc1 | > 66.7
CC1CCCC(NC(=O)CNC(=O)c2cccs2)C1C (stereo not given) | > 44.2
CC(=O)Cc1nsc(NC(=O)c2ccccc2Cl)n1 | > 44.4
O=C(c1ccco1)N1CCN(CCOc2ccccc2)CC1 | 42.7 (≈ 142 µM)
COc1ccc(-c2ccc(CCC(=O)O)n2-c2ccccc2O)cc1 | > 50.6
O=C(COC(=O)c1ccccc1O)Nc1ncc(Cl)cc1Cl | 23.5 (≈ 68.9 µM)
CC(C)NC(=O)c1ccc(CN2CCc3ccccc3C2)cc1 | 2.6 (≈ 8.43 µM)
O=C(c1ccc2ccccc2n1)N1CCN(S(=O)(=O)c2ccccc2)CC1 | > 57.2
Cc1c(O)nc(SC2CC(=O)N(c3cc(Cl)cc(Cl)c3)C2=O)[nH]c1=O (stereo not given) | > 60
COc1ccc2oc(C(=O)OCC(=O)NC3CCCC3)c(C)c2c1 | 6.7 (≈ 20.2 µM)
O=C(NCc1ccc(Cl)cc1)c1nccnc1CO | 40.5 (≈ 146 µM)
CS(=O)(=NS(=O)(=O)c1ccc(Cl)cc1)c1ccccc1 (stereo not given) | > 49.5
O=C(CCCC(=O)NC1CCCCC1)Nc1ccc([N+](=O)[O-])cc1 | 12 (≈ 36 µM)
CC1CCCCN1C(=O)CSc1nc(C2CC2)nc2ccccc12 (stereo not given) | > 51.2
Cc1ccc(C)c(OCCC(=O)OCC(=O)Nc2cc(S(=O)(=O)N3CCCCC3)ccc2C)c1 | 13.9 (≈ 28.4 µM)
CCOc1ccc(C(=O)Cn2cnc3ccccc3c2=O)cc1 | 8.5 (≈ 27.6 µM)
COc1cccc(S(=O)(=O)Nc2cccc(C(=O)N3CCCC3)c2)c1 | 47.9 (≈ 133 µM)
COC(=O)c1ccc(C(=S)NCC2(N(C)C)CCCCC2)cc1 | 45.6 (≈ 136 µM)
N/C(CSc1ccccn1)=N\OCc1c(Cl)cccc1Cl | 29 (≈ 84.7 µM)
